Test results published in patent US11773078B2, “Furin inhibitors” (Glaxosmithkline Intellectual Property Development Limited, priority 2018, dated 2023).

Columns and labels:
[1] = biological target: T1, Furin (108-574-Tev-Flag-His) enzyme (Homo sapiens, UniProt P09958); test: Furin enzyme assay; type: biochemical; conditions: for IC50: read-out: furin enzyme pIC50 (converted)
T1 construct: Furin (108-574-Tev-Flag-His) enzyme was expressed and purified from CHO cells; TEV cleavage site (C); FLAG (C); His (C); made in house; host or cells: CHO cells
In short: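 CHO-expressed, purified furin construct at 40 pM in 100 mM HEPES pH7.5, 1 mM CaCl2, 0.005% Triton X-100. Eleven-point 1:3 series, 0.00017–10 μM final, incubated 2 h at room temperature and read on Envision. pXC50 from four-parameter fit.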

[2] = biological target: T2, furin (endogenous protease) in U20S cells (Homo sapiens, UniProt P09958); test: Furin cell-based assay (image-based, Golgi-targeted GFP with BMP10 furin/PCSK cleavage site); conditions: 24-hour incubation, read-out: furin golgi cell pXC50 (converted);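 note: Read-out is mean GFP fluorescence of Golgi puncta per cell by high-content imaging, retained when furin inhibited, over an eleven-point 0.00017–10 µM series, four-parameter fit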
T2 construct: the endogenous protease cleaves GFP; endogenous in cells; host or cells: U2OS cells transduced with a BacMam reporter
T2 sequence (P09958 108-794): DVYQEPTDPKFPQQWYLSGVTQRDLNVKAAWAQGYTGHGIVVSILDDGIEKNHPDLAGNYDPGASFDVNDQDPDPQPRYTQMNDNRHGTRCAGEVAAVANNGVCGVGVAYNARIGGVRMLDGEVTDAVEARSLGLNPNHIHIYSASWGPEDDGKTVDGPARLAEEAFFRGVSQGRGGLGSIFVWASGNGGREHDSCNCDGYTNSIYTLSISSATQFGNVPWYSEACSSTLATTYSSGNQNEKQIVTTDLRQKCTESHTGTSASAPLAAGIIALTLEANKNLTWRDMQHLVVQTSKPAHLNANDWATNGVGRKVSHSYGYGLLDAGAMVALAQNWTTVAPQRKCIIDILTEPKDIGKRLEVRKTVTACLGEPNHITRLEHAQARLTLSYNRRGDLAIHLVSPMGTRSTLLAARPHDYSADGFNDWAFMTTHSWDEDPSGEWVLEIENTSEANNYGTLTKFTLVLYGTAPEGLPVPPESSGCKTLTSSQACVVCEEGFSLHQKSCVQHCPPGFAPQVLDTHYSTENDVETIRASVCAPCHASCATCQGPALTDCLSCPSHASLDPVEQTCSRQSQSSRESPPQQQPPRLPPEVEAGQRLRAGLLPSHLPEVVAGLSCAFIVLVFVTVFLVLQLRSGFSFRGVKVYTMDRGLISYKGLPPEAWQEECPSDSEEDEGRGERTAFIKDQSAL

T1 sequence (P09958 108-574): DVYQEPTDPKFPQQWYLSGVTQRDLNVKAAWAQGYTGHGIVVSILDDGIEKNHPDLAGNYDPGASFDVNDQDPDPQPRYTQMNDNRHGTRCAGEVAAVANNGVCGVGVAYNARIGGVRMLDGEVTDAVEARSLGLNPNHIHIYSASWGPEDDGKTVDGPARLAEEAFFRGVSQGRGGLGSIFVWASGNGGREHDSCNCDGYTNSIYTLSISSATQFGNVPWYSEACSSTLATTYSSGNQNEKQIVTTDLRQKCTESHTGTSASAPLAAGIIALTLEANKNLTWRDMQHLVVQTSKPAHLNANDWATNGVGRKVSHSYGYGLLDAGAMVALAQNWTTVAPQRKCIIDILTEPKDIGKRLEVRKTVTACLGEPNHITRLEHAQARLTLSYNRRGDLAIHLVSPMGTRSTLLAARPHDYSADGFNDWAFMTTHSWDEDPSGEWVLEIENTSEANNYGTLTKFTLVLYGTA

Structure (SMILES) | furin enzyme pIC50 [1] | EC50 [2] | IC50 [1]
CC(=O)NCC1CCN(Cc2cc(Oc3ccc(N4CC[N+](C)(C)CC4)nc3)nc(-c3cc(Cl)cc(Cl)c3)c2)CC1.[Cl-] [Example 181, 4-(5-((4-((4-(Acetamidomethyl)piperidin-1-yl)methyl)-6-(3,5-dichlorophenyl)pyridin-2-yl)oxy)pyridin-2-yl)-1,1-dimethylpiperazin-1-ium chloride] | 9 | 79.4 nM | 
CC(=O)NCC1CCN(Cc2cc(Oc3ccc(N4C[C@@H]5C[C@H]4CN5CCS(C)(=O)=O)nc3)nc(-c3cc(Cl)cc(Cl)c3)c2)CC1 [Example 183, N-((1-((2-(3,5-Dichlorophenyl)-6-((6-((1S,4S)-5-(2-(methylsulfonyl)ethyl)-2,5-diazabicyclo[2.2.1]heptan-2-yl)pyridin-3-yl)oxy)pyridin-4-yl)methyl)piperidin-4-yl)methyl)acetamide] |  | 12.6 nM | 0.0251 nM
CC(=O)NCC1CCN(Cc2cc(Oc3ccc(N4CC5CCC(C4)N5CCC(=O)O)nc3)nc(-c3cc(Cl)cc(Cl)c3)c2)CC1 [Example 185, 3-(3-(5-((4-((4-(Acetamidomethyl)piperidin-1-yl)methyl)-6-(3,5-dichlorophenyl)pyridin-2-yl)oxy)pyridin-2-yl)-3,8-diazabicyclo[3.2.1]octan-8-yl)propanoic acid] | 9.5 | 31.6 nM | 
CC(=O)NCC1CCN(Cc2cc(Oc3ccc(N4CCN(CCC(=O)O)[C@@H](C)C4)nc3)nc(-c3cc(Cl)cc(Cl)c3)c2)CC1 [Example 186, (S)-3-(4-(5-((4-((4-(acetamidomethyl)piperidin-1-yl)methyl)-6-(3,5-dichlorophenyl)pyridin-2-yl)oxy)pyridin-2-yl)-2-methylpiperazin-1-yl)propanoic acid] | 9.1 | 39.8 nM | 
O=C(O)CC1CCN(Cc2cc(Oc3ccc(N4C[C@@H]5C[C@H]4CN5)nc3)nc(-c3cc(Cl)cc(Cl)c3)c2)CC1 [Example 187, 2-(1-((2-((6-((1S,4S)-2,5-diazabicyclo[2.2.1]heptan-2-yl)pyridin-3-yl)oxy)-6-(3,5-dichlorophenyl)pyridin-4-yl)methyl)piperidin-4-yl)acetic acid] |  | 79.4 nM | 1.26 nM
CCC(CCN1CCN(c2ccc(Oc3cc(CN4CCC(CNC(C)=O)CC4)cc(-c4cc(Cl)cc(Cl)c4)n3)cn2)CC1)C(=O)O (stereo not drawn) [Example 188, 4-(4-(5-((4-((4-(acetamidomethyl)piperidin-1-yl)methyl)-6-(3,5-dichlorophenyl)pyridin-2-yl)oxy)pyridin-2-yl)piperazin-1-yl)-2-ethylbutanoic acid] | 8.8 | 12.6 nM | 
CC(=O)NCC1CCN(Cc2cc(Oc3ccc(N4CCN(CC(C)(C)C(=O)O)CC4)nc3)nc(-c3cc(Cl)cc(Cl)c3)c2)CC1 [Example 189, 3-(4-(5-((4-((4-(acetamidomethyl)piperidin-1-yl)methyl)-6-(3,5-dichlorophenyl)pyridin-2-yl)oxy)pyridin-2-yl)piperazin-1-yl)-2,2-dimethylpropanoic acid] | 8.7 | 31.6 nM | 
CC(=O)NCC1CCN(Cc2cc(Oc3ccc(N4CCCN(CCC(=O)O)CC4)nc3)nc(-c3cc(Cl)cc(Cl)c3)c2)CC1 [Example 190, 3-(4-(5-((4-((4-(Acetamidomethyl)piperidin-1-yl)methyl)-6-(3,5-dichlorophenyl)pyridin-2-yl)oxy)pyridin-2-yl)-1,4-diazepan-1-yl)propanoic acid] | 10.7 | 158 nM | 
CC(=O)NCC1CCN(Cc2cc(Oc3ccc(N4CCN(CCC(=O)O)C(C)(C)C4)nc3)nc(-c3cc(Cl)cc(Cl)c3)c2)CC1 [Example 191, 3-(4-(5-((4-((4-(acetamidomethyl)piperidin-1-yl)methyl)-6-(3,5-dichlorophenyl)pyridin-2-yl)oxy)pyridin-2-yl)-2,2-dimethylpiperazin-1-yl)propanoic acid] | 9.8 | 39.8 nM | 
CC(=O)NCC1CCN(Cc2cc(Oc3ccc(N4CCCNCC4)nc3)nc(-c3cc(Cl)cc(Cl)c3)c2)CC1 [Example 192, N-((1-((2-((6-(1,4-diazepan-1-yl)pyridin-3-yl)oxy)-6-(3,5-dichlorophenyl)pyridin-4-yl)methyl)piperidin-4-yl)methyl)acetamide] | 10.4 | 15.8 nM | 
CNC1CCN(c2ccc(Oc3cc(CN4CCC(CNC(C)=O)CC4)cc(-c4cc(Cl)cc(Cl)c4)n3)cn2)CC1 [Example 193, N-((1-((2-(3,5-dichlorophenyl)-6-((6-(4-(methylamino)piperidin-1-yl)pyridin-3-yl)oxy)pyridin-4-yl)methyl)piperidin-4-yl)methyl)acetamide] | 9 | 3.16 nM | 
CC(=O)NCC1CCN(Cc2cc(Oc3ccc(N4CC5CNCC5C4)nc3)nc(-c3cc(Cl)cc(Cl)c3)c2)CC1 (stereo not drawn) [Example 194, N-((1-((2-(3,5-dichlorophenyl)-6-((6-(hexahydropyrrolo[3,4-c]pyrrol-2(1H)-yl)pyridin-3-yl)oxy)pyridin-4-yl)methyl)piperidin-4-yl)methyl)acetamide] | 9.1 | 3.16 nM | 
CC(=O)NCC1CCN(Cc2cc(Oc3ccc(N4CCNC(CO)C4)nc3)nc(-c3cc(Cl)cc(Cl)c3)c2)CC1 (stereo not drawn) [Example 195, N-((1-((2-(3,5-dichlorophenyl)-6-((6-(3-(hydroxymethyl)piperazin-1-yl)pyridin-3-yl)oxy)pyridin-4-yl)methyl)piperidin-4-yl)methyl)acetamide] | 9.2 | 1 nM | 
CC(=O)NCC1CCN(Cc2cc(Oc3ccc(N4CCNC(C)(C)C4)nc3)nc(-c3cc(Cl)cc(Cl)c3)c2)CC1 [Example 197, N-((1-((2-(3,5-dichlorophenyl)-6-((6-(3,3-dimethylpiperazin-1-yl)pyridin-3-yl)oxy)pyridin-4-yl)methyl)piperidin-4-yl)methyl)acetamide] | 9.2 | 2 nM | 
CC(=O)NCC1CCN(Cc2cc(Oc3ccc(N4CCC(N)C(C)(C)C4)nc3)nc(-c3cc(Cl)cc(Cl)c3)c2)CC1 (stereo not drawn) [Example 198, N-((1-((2-((6-(4-amino-3,3-dimethylpiperidin-1-yl)pyridin-3-yl)oxy)-6-(3,5-dichlorophenyl)pyridin-4-yl)methyl)piperidin-4-yl)methyl)acetamide] | 9.3 | 2 nM | 
CC(=O)NCC1CCN(Cc2cc(Oc3ccc(N4CCC5(CCNC5)C4)nc3)nc(-c3cc(Cl)cc(Cl)c3)c2)CC1 (stereo not drawn) [Example 199, N-((1-((2-((6-(2,7-diazaspiro[4.4]nonan-2-yl)pyridin-3-yl)oxy)-6-(3,5-dichlorophenyl)pyridin-4-yl)methyl)piperidin-4-yl)methyl)acetamide] | 9.2 | 5.01 nM | 
CC(=O)NCC1CCN(Cc2cc(Oc3ccc(N4CCN(C)CC4)nc3)nc(-c3cc(Cl)cc(Cl)c3)c2)CC1 [Example 200, N-((1-((2-(3,5-dichlorophenyl)-6-((6-(4-methylpiperazin-1-yl)pyridin-3-yl)oxy)pyridin-4-yl)methyl)piperidin-4-yl)methyl)acetamide] | 9.1 | 0.501 nM | 
CNCc1cc(Oc2ccc(N3CC4CNCC4C3)nc2)cc(-c2cc(Cl)cc(Cl)c2)c1 (stereo not drawn) [Example 201, 1-(3′,5′-dichloro-5-((6-(hexahydropyrrolo[3,4-c]pyrrol-2(1H)-yl)pyridin-3-yl)oxy)-[1,1′-biphenyl]-3-yl)-N-methylmethanamine] | 9.4 | 20 nM | 
